Measured values from ChEMBL document CHEMBL1201862, “PubChem BioAssay data set” (2004).
Activity calls are given as the source filed them.

Legend:
[1] = biological target: T1, Beta-2 adrenergic receptor (Homo sapiens, UniProt P07550); assay: ADRB2 activation measured by internalization – cell-based, FAP fluorogen, flow cytometry, cherry pick 1, dose response (AID 588763); format: functional
[2] = biological target: T1, Beta-2 adrenergic receptor; assay: Dose response for HTS for Beta-2AR agonists via FAP method from Powderset3.; format: functional
[3] = biological target: Protein Wnt-3a (Mus musculus, UniProt P27467); assay: SAR analysis of small molecule antagonists of Gli-SUFU in a Wnt3a luminescent reporter assay.; format: functional
[4] = biological target: Albumin (Bos taurus, UniProt P02769); assay: Counterscreen for inhibitors of T-cell receptor (TCR)-CD3 interaction: Fluorescence-based biochemical high throughput dose response assay to identify inhibitors of T-cell receptor (TCR)-CD3 interaction using a TAMRA-labeled BSA probe.; format: functional
[5] = biological target: T2, Exodeoxyribonuclease V (Escherichia coli (strain K12), UniProt P04993+P07648+P08394); assay: RecBCD inhibition via phage-restricted bacterial growth – absorbance, V66 E. coli, mutant T4 phage, counter-screen for AddAB inhibitor project, dose response (AID 492957); format: functional, cell-based, Escherichia coli str. K-12 substr. MG1655
T2 sequence (P04993 whole entry): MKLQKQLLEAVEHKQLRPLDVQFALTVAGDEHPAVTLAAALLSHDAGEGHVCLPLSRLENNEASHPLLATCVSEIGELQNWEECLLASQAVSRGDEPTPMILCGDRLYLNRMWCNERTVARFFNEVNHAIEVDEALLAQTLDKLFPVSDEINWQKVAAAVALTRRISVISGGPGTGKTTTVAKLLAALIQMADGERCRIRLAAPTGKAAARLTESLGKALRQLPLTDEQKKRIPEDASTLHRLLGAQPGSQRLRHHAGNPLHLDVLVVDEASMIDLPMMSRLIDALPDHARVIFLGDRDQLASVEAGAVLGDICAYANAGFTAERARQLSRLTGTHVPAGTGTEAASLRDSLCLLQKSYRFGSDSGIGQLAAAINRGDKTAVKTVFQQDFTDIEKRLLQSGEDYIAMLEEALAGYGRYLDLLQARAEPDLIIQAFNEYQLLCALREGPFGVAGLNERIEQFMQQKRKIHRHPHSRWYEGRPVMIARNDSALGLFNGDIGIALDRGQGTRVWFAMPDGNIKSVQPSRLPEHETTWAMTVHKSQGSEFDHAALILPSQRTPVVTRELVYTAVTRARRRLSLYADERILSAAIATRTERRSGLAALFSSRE
T2 sequence (P07648 whole entry): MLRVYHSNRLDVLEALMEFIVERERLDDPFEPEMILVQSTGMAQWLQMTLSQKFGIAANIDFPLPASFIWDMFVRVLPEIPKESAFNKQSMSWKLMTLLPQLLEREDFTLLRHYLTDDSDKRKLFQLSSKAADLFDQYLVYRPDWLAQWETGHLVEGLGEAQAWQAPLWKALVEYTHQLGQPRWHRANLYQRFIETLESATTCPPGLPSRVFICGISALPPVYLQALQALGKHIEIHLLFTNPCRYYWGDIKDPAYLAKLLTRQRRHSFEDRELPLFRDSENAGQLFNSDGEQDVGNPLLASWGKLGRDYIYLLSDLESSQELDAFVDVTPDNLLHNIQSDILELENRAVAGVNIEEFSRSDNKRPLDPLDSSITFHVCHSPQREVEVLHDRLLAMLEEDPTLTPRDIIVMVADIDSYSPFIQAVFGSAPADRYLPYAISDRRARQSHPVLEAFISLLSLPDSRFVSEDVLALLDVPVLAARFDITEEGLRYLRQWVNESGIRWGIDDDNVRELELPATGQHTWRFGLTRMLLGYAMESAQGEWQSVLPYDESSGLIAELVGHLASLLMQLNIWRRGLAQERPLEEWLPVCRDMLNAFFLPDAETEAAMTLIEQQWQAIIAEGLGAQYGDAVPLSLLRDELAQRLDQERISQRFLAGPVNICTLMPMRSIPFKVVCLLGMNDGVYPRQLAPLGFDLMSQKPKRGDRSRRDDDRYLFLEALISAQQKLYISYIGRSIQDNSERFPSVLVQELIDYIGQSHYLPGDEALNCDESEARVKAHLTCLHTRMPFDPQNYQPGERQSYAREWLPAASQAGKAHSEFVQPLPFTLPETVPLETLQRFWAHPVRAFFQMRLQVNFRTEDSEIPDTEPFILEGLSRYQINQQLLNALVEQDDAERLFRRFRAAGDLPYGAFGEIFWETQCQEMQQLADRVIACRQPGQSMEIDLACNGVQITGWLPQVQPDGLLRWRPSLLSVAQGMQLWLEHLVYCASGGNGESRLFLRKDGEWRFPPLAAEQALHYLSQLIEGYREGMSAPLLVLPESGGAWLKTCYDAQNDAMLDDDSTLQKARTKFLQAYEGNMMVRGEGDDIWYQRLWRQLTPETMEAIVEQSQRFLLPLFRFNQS
T2 sequence (P08394 whole entry): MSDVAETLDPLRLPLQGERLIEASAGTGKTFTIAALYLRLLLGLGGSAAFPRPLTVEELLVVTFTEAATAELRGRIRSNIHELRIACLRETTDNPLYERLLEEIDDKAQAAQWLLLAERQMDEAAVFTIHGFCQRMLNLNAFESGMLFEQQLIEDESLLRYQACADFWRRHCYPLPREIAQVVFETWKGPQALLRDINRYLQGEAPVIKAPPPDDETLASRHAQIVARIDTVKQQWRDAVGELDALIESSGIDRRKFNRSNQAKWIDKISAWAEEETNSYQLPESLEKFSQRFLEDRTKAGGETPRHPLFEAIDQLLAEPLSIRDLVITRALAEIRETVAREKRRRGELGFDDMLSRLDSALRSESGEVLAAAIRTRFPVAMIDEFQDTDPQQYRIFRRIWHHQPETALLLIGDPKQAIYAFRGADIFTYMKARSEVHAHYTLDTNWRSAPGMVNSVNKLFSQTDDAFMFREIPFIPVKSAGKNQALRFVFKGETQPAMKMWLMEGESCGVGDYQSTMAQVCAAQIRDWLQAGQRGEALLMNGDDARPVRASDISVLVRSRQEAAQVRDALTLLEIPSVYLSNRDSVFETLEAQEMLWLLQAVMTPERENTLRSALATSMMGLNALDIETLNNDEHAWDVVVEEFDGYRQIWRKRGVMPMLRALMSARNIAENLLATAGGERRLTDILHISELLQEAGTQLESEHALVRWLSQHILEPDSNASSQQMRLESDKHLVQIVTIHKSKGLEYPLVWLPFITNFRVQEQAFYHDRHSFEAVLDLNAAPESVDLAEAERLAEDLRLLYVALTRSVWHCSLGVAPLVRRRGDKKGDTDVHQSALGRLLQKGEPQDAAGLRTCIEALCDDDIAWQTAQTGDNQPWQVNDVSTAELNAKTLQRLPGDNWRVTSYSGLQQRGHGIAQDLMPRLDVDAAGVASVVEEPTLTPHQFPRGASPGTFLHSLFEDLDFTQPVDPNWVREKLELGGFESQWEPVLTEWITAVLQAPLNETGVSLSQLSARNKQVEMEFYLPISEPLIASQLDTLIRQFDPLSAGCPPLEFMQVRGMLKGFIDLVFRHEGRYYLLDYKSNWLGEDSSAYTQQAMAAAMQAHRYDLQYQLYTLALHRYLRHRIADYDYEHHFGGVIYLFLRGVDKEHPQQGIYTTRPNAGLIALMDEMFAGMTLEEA

[6] = Counterscreen for AddAB inhibitors: absorbance-based bacterial cell-based high throughput dose response assay for inhibitors of bacterial viability. [Related pubchem assays (depositor defined):AID435030, AID449728, AID449731, AID488942, AID488955, AID488956]; format: functional
[7] = biological target: Nonstructural protein 1 (Influenza A virus, UniProt Q194T2); format: functional, Influenza A virus (A/California/07/2009(H1N1))
[8] = biological target: T3, Rac GTPase-activating protein 1 (Homo sapiens, UniProt Q9H0H5); assay: blockers of MgcRacGAP-driven Rac1 GTP hydrolysis – biochemical, ADP Hunter fluorescence, primary and confirmatory, confirmation (AID 624330); format: functional
T3 sequence (Q9H0H5 whole entry): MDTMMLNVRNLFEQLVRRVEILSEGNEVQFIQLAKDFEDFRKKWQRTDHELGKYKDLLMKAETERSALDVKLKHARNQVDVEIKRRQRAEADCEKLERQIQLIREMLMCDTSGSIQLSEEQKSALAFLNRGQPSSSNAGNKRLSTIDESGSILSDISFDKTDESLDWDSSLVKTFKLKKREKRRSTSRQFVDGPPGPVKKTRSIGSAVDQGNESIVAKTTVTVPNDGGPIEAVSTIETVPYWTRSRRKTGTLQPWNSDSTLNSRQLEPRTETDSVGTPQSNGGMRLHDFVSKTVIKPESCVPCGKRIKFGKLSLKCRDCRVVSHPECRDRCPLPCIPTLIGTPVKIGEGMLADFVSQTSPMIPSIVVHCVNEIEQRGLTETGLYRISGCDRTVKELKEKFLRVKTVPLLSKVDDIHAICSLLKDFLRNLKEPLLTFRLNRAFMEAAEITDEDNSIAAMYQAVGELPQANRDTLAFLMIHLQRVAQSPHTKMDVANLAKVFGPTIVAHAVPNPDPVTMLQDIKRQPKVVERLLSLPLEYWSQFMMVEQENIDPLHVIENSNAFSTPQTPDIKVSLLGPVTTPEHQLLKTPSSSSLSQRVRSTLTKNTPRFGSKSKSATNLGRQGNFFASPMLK

[9] = viability loss in HeLa cells – cytotoxicity control for MgcRacGAP inhibitor project, dose response (AID 624300); format: functional
[10] = biological target: Protein S100-A4 (Homo sapiens, UniProt P26447); assay: human S100A4 peptide interaction inhibition curves – biochemical, fluorescence polarization, cherry-picked hits, dose response (AID 687001); format: functional
[11] = biological target: T4, Probable nicotinate-nucleotide adenylyltransferase (Staphylococcus aureus (strain N315), UniProt P65502); format: functional, Staphylococcus aureus subsp. aureus N315;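 for IC50 Mean: confirmatory dose-response retesting of NadD inhibitor hits first found in an ultra-high-throughput screen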
[12] = biological target: T4, Probable nicotinate-nucleotide adenylyltransferase; format: functional, Staphylococcus aureus subsp. aureus N315; settings: read-out: IC50_Mean
[13] = tested on: Streptococcus; assay: GAS UMAA2166 growth inhibition – luminescence, BacTiterGlo, counter-screen for streptokinase expression inhibitor project, dose response (AID 1915); format: functional, organism-based;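 note: potency for reduction of bacterial viability or growth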
[14] = tested on: Streptococcus sp. 'group A'; assay: Streptococcus pyogenes SK(-)GAS viability under kanamycin – luminescence, BacTiterGlo, confirmation, counter-screen for streptokinase expression inhibitor project, dose response (AID 1900); format: functional, organism-based
[15] = biological target: T5, Streptokinase A (Streptococcus pyogenes serotype M1, UniProt P10520); assay: viability-normalized secreted streptokinase activity reduction – plasminogen activation absorbance, OD405, dose response (AID 1914); format: functional, Streptococcus pyogenes M1 GAS;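 note: secreted streptokinase activity via plasminogen activation per viability signal from cell pellet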
T5 sequence (P10520 whole entry): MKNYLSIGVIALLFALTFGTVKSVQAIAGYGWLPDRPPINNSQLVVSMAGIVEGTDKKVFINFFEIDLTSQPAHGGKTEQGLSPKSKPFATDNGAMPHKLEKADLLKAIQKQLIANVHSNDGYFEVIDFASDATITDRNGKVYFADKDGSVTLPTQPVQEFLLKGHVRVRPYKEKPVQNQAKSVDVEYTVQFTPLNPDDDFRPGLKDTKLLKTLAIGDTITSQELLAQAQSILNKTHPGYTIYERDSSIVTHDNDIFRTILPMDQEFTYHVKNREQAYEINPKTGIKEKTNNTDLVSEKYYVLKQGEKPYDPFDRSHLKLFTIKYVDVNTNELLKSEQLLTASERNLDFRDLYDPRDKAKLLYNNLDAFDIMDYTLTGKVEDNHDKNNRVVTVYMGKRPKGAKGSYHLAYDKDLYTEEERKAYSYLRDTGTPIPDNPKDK

[16] = biological target: Fructose-bisphosphate aldolase (Mycobacterium tuberculosis, UniProt P9WQA3); assay: Fluorescence-based biochemical high throughput dose response assay for inhibitors of the fructose-bisphosphate aldolase (FBA) of M. tuberculosis.; format: functional
[17] = tested on: HeLa; assay: viability loss in HeLa cells – cell-based, ATP luminescence, cherry-pick samples, cytotoxicity control, dose response (AID 687004); format: functional; settings: Homo sapiens
[18] = viability loss in HepG2 hepatoma cells – cell-based, cherry-picks, set 5, cytotoxicity control, dose response (AID 1053118); format: functional
[19] = TNFa-induced NF-kB reporter signal decrease – HEK293 LMP1 reporter cells, dry powder, set 2, selectivity assay for EBV LMP1 NF-kB inhibitor project, dose response (AID 624369); format: functional
[20] = cytotoxicity in HEK293 background cells – cell-based, dry powder, set 2, counter-screen for EBV LMP1 inhibitor project, dose response (AID 624374); format: functional

T4 sequence (P65502 whole entry): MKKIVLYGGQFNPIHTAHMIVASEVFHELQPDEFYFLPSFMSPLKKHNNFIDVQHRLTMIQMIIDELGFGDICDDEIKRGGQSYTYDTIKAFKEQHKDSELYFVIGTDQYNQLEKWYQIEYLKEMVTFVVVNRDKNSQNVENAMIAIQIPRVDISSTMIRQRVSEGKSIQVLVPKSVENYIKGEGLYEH
T1 sequence (P07550 whole entry): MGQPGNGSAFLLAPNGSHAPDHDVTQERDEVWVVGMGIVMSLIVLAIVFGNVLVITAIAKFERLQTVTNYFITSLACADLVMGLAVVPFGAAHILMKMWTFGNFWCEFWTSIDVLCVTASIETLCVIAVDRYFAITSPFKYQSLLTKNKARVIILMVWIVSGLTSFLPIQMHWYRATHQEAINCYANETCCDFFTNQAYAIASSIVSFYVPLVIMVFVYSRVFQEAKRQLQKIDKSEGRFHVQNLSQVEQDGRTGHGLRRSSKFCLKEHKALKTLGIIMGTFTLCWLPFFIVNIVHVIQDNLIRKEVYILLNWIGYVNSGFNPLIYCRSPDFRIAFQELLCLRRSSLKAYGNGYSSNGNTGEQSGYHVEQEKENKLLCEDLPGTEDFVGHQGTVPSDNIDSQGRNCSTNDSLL
Chain of Nonstructural protein 1 (Q194T2 whole entry): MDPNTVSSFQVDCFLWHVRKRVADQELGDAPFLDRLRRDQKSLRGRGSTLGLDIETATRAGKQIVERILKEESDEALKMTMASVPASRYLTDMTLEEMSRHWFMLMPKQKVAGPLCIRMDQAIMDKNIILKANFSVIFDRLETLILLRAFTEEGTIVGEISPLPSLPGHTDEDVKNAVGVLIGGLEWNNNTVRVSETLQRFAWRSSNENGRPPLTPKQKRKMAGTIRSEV
Chain of Protein Wnt-3a (P27467 whole entry): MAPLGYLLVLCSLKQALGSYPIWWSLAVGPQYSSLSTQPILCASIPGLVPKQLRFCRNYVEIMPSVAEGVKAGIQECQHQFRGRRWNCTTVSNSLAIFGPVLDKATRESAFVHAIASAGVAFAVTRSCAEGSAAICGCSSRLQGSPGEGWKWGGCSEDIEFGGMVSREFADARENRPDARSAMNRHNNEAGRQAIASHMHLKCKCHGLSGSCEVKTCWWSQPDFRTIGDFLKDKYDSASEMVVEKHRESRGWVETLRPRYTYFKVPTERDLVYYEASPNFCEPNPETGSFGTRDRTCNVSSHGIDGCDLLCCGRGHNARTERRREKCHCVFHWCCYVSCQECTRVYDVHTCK
Chain of Albumin (P02769 whole entry): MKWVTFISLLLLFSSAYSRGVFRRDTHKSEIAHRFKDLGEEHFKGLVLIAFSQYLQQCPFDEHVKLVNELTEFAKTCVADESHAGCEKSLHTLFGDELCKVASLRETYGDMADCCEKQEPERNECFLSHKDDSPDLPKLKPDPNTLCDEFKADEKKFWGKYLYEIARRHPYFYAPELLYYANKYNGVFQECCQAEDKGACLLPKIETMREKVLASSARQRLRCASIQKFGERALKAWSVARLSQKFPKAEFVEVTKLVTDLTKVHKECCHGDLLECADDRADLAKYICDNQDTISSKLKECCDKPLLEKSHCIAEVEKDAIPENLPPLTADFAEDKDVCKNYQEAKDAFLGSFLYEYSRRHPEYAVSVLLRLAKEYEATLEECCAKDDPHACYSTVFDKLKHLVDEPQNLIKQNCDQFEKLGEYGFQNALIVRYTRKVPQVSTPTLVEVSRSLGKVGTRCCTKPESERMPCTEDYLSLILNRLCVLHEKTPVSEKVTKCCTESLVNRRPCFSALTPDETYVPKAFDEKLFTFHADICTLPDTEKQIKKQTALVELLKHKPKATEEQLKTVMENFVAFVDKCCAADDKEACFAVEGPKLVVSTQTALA
Chain of Protein S100-A4 (P26447 whole entry): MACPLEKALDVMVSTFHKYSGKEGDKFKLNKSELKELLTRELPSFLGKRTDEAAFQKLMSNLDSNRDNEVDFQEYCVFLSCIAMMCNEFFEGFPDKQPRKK
Chain of Fructose-bisphosphate aldolase (P9WQA3 whole entry): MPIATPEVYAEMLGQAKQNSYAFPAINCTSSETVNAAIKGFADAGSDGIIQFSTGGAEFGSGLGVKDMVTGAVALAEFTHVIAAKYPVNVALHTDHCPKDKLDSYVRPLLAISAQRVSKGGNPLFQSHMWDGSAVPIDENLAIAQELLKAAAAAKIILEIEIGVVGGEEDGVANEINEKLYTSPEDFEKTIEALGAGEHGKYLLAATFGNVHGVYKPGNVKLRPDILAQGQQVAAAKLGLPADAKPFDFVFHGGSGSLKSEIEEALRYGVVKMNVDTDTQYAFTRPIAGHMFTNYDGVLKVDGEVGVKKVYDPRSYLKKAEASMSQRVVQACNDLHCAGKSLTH

Structure (SMILES): Cc1ccc(OCc2cc(C(=O)N(C)Cc3cnn(-c4ccccc4C)c3)no2)cn1
- EC50 [1]: 0.305 µM (active)
- EC50 [2]: 0.0555 µM (active)

Structure (SMILES): O=C(Nc1cc(N2CCCCC2)ncn1)c1ccco1
- IC50 [3]: > 21.8 µM (inactive)

Structure (SMILES): O=C(NNC(=O)C1CCN(S(=O)(=O)c2ccccc2C(F)(F)F)CC1)c1ccccc1O
- IC50 [4]: > 94.1 µM (inactive)
- IC50 [5]: > 119 µM (inactive)
- IC50 [6]: > 119 µM (inactive)

Structure (SMILES): CN(C)c1ccc(C=c2c3ccccc3n3c2cc(-c2ccc(Cl)cc2)[n+]3C)cc1
- IC50 [7]: 5.85 µM (active)
- IC50 [8]: 44.9 µM (active)
- CC50 [9]: 18.9 µM (active)

Structure (SMILES): CSCc1cc(C(=O)NC2CC2)c(N)s1
- AC50 [10]: 17.5 µM (active)

Structure (SMILES): Cc1c(C(=O)NNC(=O)c2ccccc2O)oc2ccc(Br)cc12
- IC50 [11]: 15.3 µM (active)
- IC50 [12]: 45.8 µM (active)
- EC50 [13]: 8.5 µM (active)
- EC50 [14]: 8.43 µM (active)
- IC50 [5]: > 119 µM (inactive)
- EC50 [15]: > 150 µM (not active)
- IC50 [6]: > 119 µM (inactive)

Structure (SMILES): COc1ccc2nc(NCCCNC(=O)c3cc(OC)c(OC)c(OC)c3)c(C#N)cc2c1
- IC50 [16]: 1.78 µM (active)

Structure (SMILES): COc1cccc(S(=O)(=O)N2C[C@@H](O)COC[C@H]3O[C@H](CC(=O)Nc4ccccc4)CC[C@@H]32)c1
- AC50 [17]: > 52 µM (inactive)

Structure (SMILES): CO[C@H]1CN(C)C(=O)c2ccc(NC(=O)Nc3ccc(Cl)c(Cl)c3)cc2OC[C@H](C)NC[C@H]1C
- AC50 [18]: 13.5 µM (active)

Structure (SMILES): COc1cccc(C#Cc2ccc([C@@H]3[C@@H](C#N)N(C(=O)c4ccccn4)[C@@H]3CO)cc2)c1
- AbsAC35 [19]: 84.96 µM
- AbsAC35 [20]: 328.8 µM
